Measurements from ChEMBL document CHEMBL1135659, “Sulfamide-based inhibitors for carboxypeptidase A. Novel type transition state analogue inhibitors for zinc proteases” (J Med Chem, 2002).

Target: T1, Carboxypeptidase A1 (Bos taurus, UniProt P00730)
T1 sequence (P00730 whole entry): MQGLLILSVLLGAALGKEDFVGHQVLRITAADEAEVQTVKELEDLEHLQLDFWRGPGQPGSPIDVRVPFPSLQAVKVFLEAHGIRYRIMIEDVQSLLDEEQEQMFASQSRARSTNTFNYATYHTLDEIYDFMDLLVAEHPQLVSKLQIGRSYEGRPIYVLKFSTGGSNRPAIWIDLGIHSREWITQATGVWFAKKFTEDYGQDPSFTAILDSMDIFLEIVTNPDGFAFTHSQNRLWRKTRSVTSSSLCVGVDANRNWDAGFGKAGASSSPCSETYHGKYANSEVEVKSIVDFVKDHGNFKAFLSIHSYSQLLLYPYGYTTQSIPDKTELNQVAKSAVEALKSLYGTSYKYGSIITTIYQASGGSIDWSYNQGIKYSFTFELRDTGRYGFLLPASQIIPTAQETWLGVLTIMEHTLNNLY
Experiment: Inhibitory activity against Carboxypeptidase A

SMILES: NS(=O)(=O)NC[C@@H](Cc1ccccc1)C(=O)O
- Ki: 1400 µM

SMILES: CC(C)NS(=O)(=O)N[C@@H](Cc1ccccc1)C(=O)O
- Ki: 610 µM

SMILES: O=C(O)[C@H](Cc1ccccc1)NS(=O)(=O)NCc1ccccc1
- Ki: 35 µM

SMILES: NS(=O)(=O)N[C@H](Cc1ccccc1)C(=O)O
- Ki: 470 µM

SMILES: CNS(=O)(=O)N[C@@H](Cc1ccccc1)C(=O)O
- Ki: 180 µM

SMILES: CN([C@@H](Cc1ccccc1)C(=O)O)S(N)(=O)=O
- Ki: 3500 µM

SMILES: O=C(O)[C@H](Cc1ccccc1)NS(=O)(=O)NCCc1ccccc1
- Ki: 180 µM

SMILES: NS(=O)(=O)NCC(Cc1ccccc1)C(=O)O (stereo not drawn)
- Ki: 2900 µM
